Results on one sequence are retold here after publication PMC12351953, “SCAN-ACT: adoptive T cell therapy target discovery through single-cell transcriptomics” (Genome Medicine, 2025).

For this assay, the target named is HLA-A*02:01 (Homo sapiens, UniProt P04439, D140Y/D185E/D98H/E176V/E277Q/G131W/G231S/I119V/I121R/I166T/I218V/L300P/L318F/N151K/N90K/P208A/P217A/Q86G/Q94H/R138H/R169H/T345S). In words: IMMUNE on-yeast peptide competition against biotinylated indicator peptide. Conditions: yeast-displayed HLA, 0.5 µM biotinylated indicator peptide (Bio-KLT), 20-fold more concentrated test peptide, overnight to equilibrium, flow cytometry. Format: binding. The text has this:
To construct plasmids driving the expression of non-covalent HLA-I heterodimers, the commercially available backbone vector pRS315 was modified. Briefly, the entire expression cassette containing genes encoding the Aga2 leader sequence, the ectodomain of a particular HLA-I heavy chain allele (A*02:01 or A*11:01 or B*35:01 or C*12:03), the Aga2p yeast native protein subunit, an HA epitope tag, and the MFα terminator was cloned to the downstream of the GAL10 promoter in pRS315, so that the expressed HLA-I heavy chain ectodomain was fused to the N-terminus of Aga2p for yeast surface display. […]
A sufficient amount of galactose-induced yeast cells was collected by centrifugation and labeled by primary antibodies in PBS + 0.5% bovine serum albumin (BSA) for 1 h on ice. […] FL1 and FL4 fluorescence channels were selected for Alexa Fluor 488 and Alexa Fluor 647, respectively, according to the fluorophore selected at the secondary labeling step as mentioned above. […]
To design indicator peptides appropriate for evaluation of HLA peptide binding on the surface of yeast cells and for downstream competitive assay development, the reported epitope repertoire for each aforementioned HLA allele from the Immune Epitope Database was carefully analyzed. […]
Background: A flow cytometer gives signals particle by particle.

For “RLHRIIPKI [test peptide from SSX1 (printed SSXI), pMHC target identified through PS-TRACT]”, the “binding to A*02:01 (IMMUNE)” value is reported as “bound”.
